According to ChEMBL document CHEMBL3112532, “Synthesis, [¹⁸F] radiolabeling, and evaluation of poly (ADP-ribose) polymerase-1 (PARP-1) inhibitors for in vivo imaging of PARP-1 using positron emission tomography” (Bioorg Med Chem, 2014):

Legend:
[1] = biological target: Poly [ADP-ribose] polymerase 1 (Homo sapiens, UniProt P09874); test: Inhibition of PARP-1 (unknown origin) assessed as NAD+ consumption after 20 mins by fluorometric analysis in presence of activated DNA
Tumour [2] = test: Drug uptake in tumor of athymic nu/nu mouse xenografted with human MDA-MB-436 cells at 200 uCi measured at 60 mins by microPET image analysis in presence of 5,6-Dihydro-2-(4-(2-fluoroethoxy)phenyl)-imidazo[4,5,1-jk][1,4]benzodiazepin-7(4H)-one; format: ADME, Neoplasm; details: 1 h
Tumour [3] = test: Drug uptake in tumor of athymic nu/nu mouse xenografted with human MDA-MB-436 cells at 200 uCi measured at 60 mins by microPET image analysis; format: ADME, Neoplasm; details: 1 h
Tumour [4] = test: Drug uptake in tumor of athymic nu/nu mouse xenografted with human MDA-MB-231 cells at 200 uCi measured at 60 mins by microPET image analysis in presence of olaparib; format: ADME, Neoplasm; details: in vivo, 1 h

Poly [ADP-ribose] polymerase 1, sequence (P09874 whole entry): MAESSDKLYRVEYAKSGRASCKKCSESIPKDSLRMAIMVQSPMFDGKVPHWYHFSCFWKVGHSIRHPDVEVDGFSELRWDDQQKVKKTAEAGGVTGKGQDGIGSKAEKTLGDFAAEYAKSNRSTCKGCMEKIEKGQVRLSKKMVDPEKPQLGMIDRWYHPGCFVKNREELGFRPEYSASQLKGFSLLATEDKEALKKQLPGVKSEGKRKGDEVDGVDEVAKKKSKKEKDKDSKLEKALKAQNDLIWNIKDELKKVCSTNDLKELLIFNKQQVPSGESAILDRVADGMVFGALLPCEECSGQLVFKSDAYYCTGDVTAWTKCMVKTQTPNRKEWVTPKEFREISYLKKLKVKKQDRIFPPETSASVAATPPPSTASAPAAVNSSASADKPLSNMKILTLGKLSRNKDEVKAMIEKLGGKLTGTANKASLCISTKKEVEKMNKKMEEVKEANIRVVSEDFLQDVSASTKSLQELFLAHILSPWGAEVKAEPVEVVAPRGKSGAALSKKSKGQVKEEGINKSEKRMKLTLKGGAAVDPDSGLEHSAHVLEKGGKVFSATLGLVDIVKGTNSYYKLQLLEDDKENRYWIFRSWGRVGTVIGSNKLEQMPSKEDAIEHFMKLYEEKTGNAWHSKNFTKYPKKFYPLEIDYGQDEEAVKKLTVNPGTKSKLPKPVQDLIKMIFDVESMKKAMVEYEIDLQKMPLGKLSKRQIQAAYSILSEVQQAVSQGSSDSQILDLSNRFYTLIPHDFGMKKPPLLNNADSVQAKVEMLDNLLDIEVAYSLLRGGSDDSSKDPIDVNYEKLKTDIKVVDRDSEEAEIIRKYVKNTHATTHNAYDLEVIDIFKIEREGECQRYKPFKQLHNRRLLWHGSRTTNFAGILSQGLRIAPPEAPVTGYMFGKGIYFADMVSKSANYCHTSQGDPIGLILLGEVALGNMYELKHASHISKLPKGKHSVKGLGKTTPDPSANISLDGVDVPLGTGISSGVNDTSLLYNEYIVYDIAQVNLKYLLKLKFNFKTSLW

An IC50 [1] of 6.3 nM was found for `O=C1NCCn2c(-c3ccc(OCCF)cc3)nc3cccc1c32` in this work.
For `O=C1NCCn2c(-c3ccc(OCC[18F])cc3)nc3cccc1c32`, the Drug uptake (Tumour [2]) was “Not Active”, the Drug uptake (Tumour [3]) was “Active” and the Drug uptake (Tumour [4]) was “Not Active”.
